According to patent publication US20100047776A1, “Cell-based screening assays for compounds that regulate the expresion of a tumor marker dj-1” (Caritas St. Elizabeth Medical Center of Boston Inc., priority 2005, published 2010):

What was measured:
[1] = tested on: 0DJ-Luc (luciferase gene lacking the DJ-1 promoter sequence); experiment: Luciferase reporter assay in control cell lines expressing 0DJ-Luc; format: cell-based, human; details: H2O2 treatment
Source text: (§1) To develop a cell-based assay system where one can identify agents that transcriptionally modulate DJ-1, a plasmid vector (−1000DJ-Luc) was made that expressed a luciferase reporter gene directed by the human DJ-1 promoter containing 1000 base pairs upstream and 65 base pairs downstream sequences (−1000 to +65) of the transcription initiation site (FIG. 1). A […] sequence containing +46 to +65 of the DJ-1 gene was fused to the luciferase gene to generate the control plasmid (0DJLuc). A neomycin resistance gene was inserted into the vectors as a selection marker.
(§2) Using the vector described in Example 1, human SH-SY5Y neuroblastoma cells were transfected with either −1000DJLuc or 0DJLuc; stably transfected clones were subsequently identified. A plasmid encoding β-galactosidase gene was co-transfected to serve as an internal control for luciferase expression.
(§3) To confirm the stable expression of the reporter genes and to evaluate these cells as devices for drug discovery, stably transfected SH-SY5Y cells were treated with increasing doses of H2O2, which has been reported to upregulate DJ-1. […] Luciferase and β-galactosidase activities were then determined. […]
(§4) C. […] Luciferase and β-galactosidase activities were determined using assay kits following manufacturer's protocol (Promega).

human DJ-1 promoter = experiment: DJ-1 promoter luciferase reporter assay in SH-SY5Y cells stably expressing −1000DJ-Luc; format: cell-based; details: SH-SY5Y cells stably expressing −1000DJ-Luc and CMV-β-galactosidase; increasing doses of H2O2 for 24 hours; untreated sample designated as 100; FIG. 2
Source text: as §1, §2, §3, §4

OO [H2O2]
Luciferase activity in control cell lines expressing 0DJ-Luc [1]: not affected
Luciferase activity normalized to β-galactosidase activity (human DJ-1 promoter activation) (human DJ-1 promoter): activated the human DJ-1 promoter in a dose dependent manner
